Legend:
[1] = tested on: phosphorylated ERK downstream of KRAS G12C in MIA PaCa2 cells; assay: Cell p-ERK detection experiment (HTRF) in MIA PaCa2; format: cell-based, human; conditions: Homo sapiens, MIA PaCa-2, 2 h, MIA PaCa2 cells, 2 hours with compound, Advance ERK phospho-T202/Y204 HTRF kit; read-out: p-ERK IC50
Method in brief: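 KRAS G12C-mutant MIA PaCa2 cells (2.5E4 per well, overnight) exposed 2 h to a 3.16-fold compound dilution series at 0.1% DMSO. Lysates probed 4 h with HTRF antibodies to ERK phospho-T202/Y204; inhibition versus DMSO control and blank, IC50 by four-parameter fit.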

[2] = tested on: KRAS G12C mutant MIA PaCa-2 cells; assay: Cell proliferation inhibition experiment, 3D spheroid, CellTiter-Glo, MIA PaCa-2; format: cell-based, human; conditions: Homo sapiens, MIA PaCa-2, 120 h, 3D cell model in 384-well spheroid plate, 5 days, CellTiter-Glo; read-out: MIA-PaCa2 IC50
Method in brief: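 200 MIA PaCa-2 cells/well grown overnight as 3D spheroids, then exposed to 3.16-fold compound dilutions (0.1% DMSO final) for 5 days. Viability read by CellTiter-Glo luminescence; inhibition calculated against DMSO and medium-only controls, and IC50 fitted by four-parameter model.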

Compound	IC50 [1]	IC50 [2]
C=CC(=O)N1CCN2C(=O)c3c(N4CCN(C)C[C@@H]4C)nc(-c4c(F)cccc4C(F)F)c(Cl)c3OC[C@H]2C1 [Z456, (6aR)-8-acryloyl-4-chloro-3-(2-(difluoromethyl)-6-fluorophenyl)-1-((S)-2,4-dimethylpiperazin-1-yl)-6,6a,7,8,9,10-hexahydro-12H-pyrazino[2,1-c]pyrido[3,4-f][1,4]oxazepin-12-one]	0.077 µM	0.0228 µM
C=CC(=O)N1CCN2C(=O)c3c(N4CC(C(=O)O)CC4(C)C)nc(-c4c(O)cccc4F)c(Cl)c3OC[C@H]2C1 (stereo partly drawn) [Z458, 1-((6aR)-8-acryloyl-4-chloro-3-(2-fluoro-6-hydroxyphenyl)-12-oxo-6,6a,7,8,9,10-hexahydro-12H-pyrazino[2,1-c]pyrido[3,4-f][1,4]oxazepin-1-yl)-5,5-dimethylpyrrolidine-3-carboxylic acid]	6.52 µM	> 1 µM
C=CC(=O)N1CCN2C(=O)c3c(N4CC(N(C)CC(F)(F)F)CC4(C)C)nc(-c4ccccc4F)c(Cl)c3OC[C@H]2C1 (mixture of isomers) [Z491a, (6aR)-8-acryloyl-4-chloro-1-(2,2-dimethyl-4-(methyl(2,2,2-trifluoroethyl)amino)pyrrolidin-1-yl)-3-(2-fluorophenyl)-6,6a,7,8,9,10-hexahydro-12H-pyrazino[2,1-c]pyrido[3,4-f][1,4]oxazepin-12-one]	0.037 µM	0.01 µM
C=CC(=O)N1CCN2C(=O)c3c(N4C[C@@H](N(C)C)CC4(C)C)nc(-c4c(F)ccc(F)c4O)c(Cl)c3OC[C@H]2C1 [Z475-1, (6aR)-8-acryloyl-4-chloro-3-(3,6-difluoro-2-hydroxyphenyl)-1-((S)-4-(dimethylamino)-2,2-dimethylpyrrolidin-1-yl)-6,6a,7,8,9,10-hexahydro-12H-pyrazino[2,1-c]pyrido[3,4-f][1,4]oxazepin-12-one]	0.035 µM	0.005 µM
C=CC(=O)N1CCN2C(=O)c3c(N4CCC5CC54)nc(-c4c(O)cccc4F)c(Cl)c3OC[C@H]2C1 (stereo partly drawn) [Z39, (6aR)-8-acryloyl-1-(2-azabicyclo[3.1.0]hexart-2-yl)-4-chloro-3-(2-fluoro-6-hydroxyphenyl)-6,6a,7,8,9,10-hexahydro-12H-pyrazino[2,1-c]pyrido[3,4-f][1,4]oxazepin-12-one]	0.14 µM	0.02 µM
C=CC(=O)N1CCN2C(=O)c3c(N4CC(N(C)C)CC4(C)C)nc(-c4cccc(F)c4F)c(Cl)c3OC[C@H]2C1 (single isomer, unassigned) [Z473-2]	0.161 µM	0.045 µM
C=CC(=O)N1CCN2C(=O)c3c(N4C[C@@H](NCC(F)(F)F)CC4(C)C)nc(-c4ccccc4F)c(Cl)c3OC[C@H]2C1 (single isomer, unassigned) [Z662-1]	0.0326 µM	0.011 µM
C=CC(=O)N1CCN2C(=O)c3c(N4C[C@@H](N5CC(F)(F)C5)CC4(C)C)nc(-c4ccccc4F)c(Cl)c3OC[C@H]2C1 (single isomer, unassigned) [Z525-2]	0.226 µM	0.014 µM
C=CC(=O)N1CCN2C(=O)c3c(N4CCN(C)C[C@@H]4C)nc(-c4c(F)cccc4OC)c(F)c3OC[C@H]2C1 [Z451, (6aR)-8-acryloyl-1-((S)-2,4-dimethylpiperazin-1-yl)-4-fluoro-3-(2-fluoro-6-methoxyphenyl)-6,6 a,7,8,9,10-hexahydro-12H-pyrazino[2,1-c]pyrido[3,4-f][1,4]oxazepin-12 (6 aH)-one]	1.48 µM	0.363 µM
C=CC(=O)N1CCN2C(=O)c3c(N4CC(N5CCN(C)CC5)CC4(C)C)nc(-c4ccccc4F)c(F)c3OC[C@H]2C1 (stereo partly drawn) [Z474, (6aR)-8-acryloyl-1-(2,2-dimethyl-4-(4-methylpiperazin-1-yl)pyrrolidin-1-yl)-4-fluoro-3-(2-fluorophenyl)-6,6a,7,8,9,10-hexahydro-12H-pyrazino[2,1-c]pyrido[3,4-f][1,4]oxazepin-12-one]	0.09 µM	0.017 µM
C=CC(=O)N1CCN2C(=O)c3c(N4CC(N(C)CC(F)F)CC4(C)C)nc(-c4ccccc4F)c(Cl)c3OCC2C1 (single isomer, unassigned) [Z659-2]	0.022 µM	0.004 µM
C=CC(=O)N1CCN2C(=O)c3c(N4C[C@@H](N(C)C)CC4(C)C)nc(-c4ccccc4F)c(Cl)c3OC[C@H]2C1 [Z453-1, (R)-8-acryloyl-4-chloro-1-((S)-4-(dimethylamino)-2,2-dimethylpyrrolidin-1-yl)-3-(2-fluorophenyl)-6,6a,7,8,9,10-hexahydro-12H-pyrazino[2,1-c]pyrido[3,4-f][1,4]oxazepin-12-one]	0.116 µM	0.014 µM
C=CC(=O)N1CCN2C(=O)c3c(N4C[C@@H](N(C)CC(F)(F)F)CC4(C)C)nc(-c4ccccc4F)c(Cl)c3OC[C@H]2C1 (single isomer, unassigned) [Z491]	0.027 µM	0.007 µM
C=CC(=O)N1CCN2C(=O)c3c(N4C[C@H](N5CCN(C)CC5)CC4(C)C)nc(-c4c(O)cccc4F)c(Cl)c3OC[C@H]2C1 (single isomer, unassigned) [Z469-2]	0.03 µM	0.004 µM
C=CC(=O)N1CCN2C(=O)c3c(N4CC(O)CC4(C)C)nc(-c4c(O)cccc4F)c(Cl)c3OC[C@H]2C1 (stereo partly drawn) [Z50, (6aR)-8-amyloyl-4-chloro-3-(2-fluoro-6-hydroxyphenyl)-1-(4-hydroxy-2,2-dimethylpyrrolidin-1-yl)-6,6a,7,8,9,10-hexahydro-12H-pyrazino[2,1-c]pyrido[3,4-f][1,4]oxazepin-12-one]	0.028 µM	0.002 µM
C=CC(=O)N1CCN2C(=O)c3c(N4C[C@@H](N5CCN(C)CC5)CC4(C)C)nc(-c4c(O)cccc4F)c(Cl)c3OC[C@H]2C1 (single isomer, unassigned) [Z469-1]	0.008 µM	0.0006 µM
C=CC(=O)N1CCN2C(=O)c3c(N4C[C@@H](N(C)C)CC4(C)C)nc(-c4cccc(C)c4F)c(Cl)c3OC[C@H]2C1 (single isomer, unassigned) [Z472-1]	0.189 µM	0.074 µM
C=CC(=O)N1CCN2C(=O)c3c(N4C[C@@H](N(C)CCF)CC4(C)C)nc(-c4ccccc4F)c(Cl)c3OC[C@H]2C1 (single isomer, unassigned) [Z660-1]	0.019 µM	0.0077 µM
C=CC(=O)N1CCN2C(=O)c3c(N4C[C@@H](N5CCN(C)CC5)CC4(C)C)nc(-c4ccccc4F)c(F)c3OC[C@H]2C1 (single isomer, unassigned) [Z474-1]	0.064 µM	0.013 µM
C=CC(=O)N1CCN2C(=O)c3c(N4CCC[C@@]4(C)C(=O)NC)nc(-c4c(O)cccc4F)c(Cl)c3OC[C@H]2C1 [Z462, (2S)-1-((6aR)-8-acryloyl-4-chloro-3-(2-fluoro-6-hydroxyphenyl)-12-oxo-6,6a,7,8,9,10-hexahydro-12H-pyrazino[2,1-c]pyrido[3,4-f][1,4]oxazepin-1-yl)-N,2-dimethylpyrrolidine-2-carboxamide]	0.165 µM	0.016 µM
C=CC(=O)N1CCN2C(=O)c3c(N4CCN(C)C[C@@H]4C)nc(-c4c(O)cccc4Cl)c(Cl)c3OC[C@H]2C1 [Z452, (6aR)-8-acryloyl-4-chloro-3-(2-chloro-6-hydroxyphenyl)-1-((S)-2,4-dimethylpiperazin-1-yl)-6,6a,7,8,9,10-hexahydro-12H-pyrazino[2,1-c]pyrido[3,4-f][1,4]oxazepin-12-one]	0.034 µM	0.0112 µM
C=CC(=O)N1CCN2C(=O)c3c(N4C[C@H](N(C)C)CC4(C)C)nc(-c4cccc(C)c4F)c(Cl)c3OC[C@H]2C1 (single isomer, unassigned) [Z472-2]	0.108 µM	0.053 µM

From patent US20230203060A1 (GENFLEET THERAPEUTICS (SHANGHAI) INC., priority 2020, published 2023)
